Measured values taken from patent publication US20050153381A1, “Immunocapture of mitochondrial protein complexes” (priority 2002, published 2005).

Assays:
[1] = biological target: T1, Complex V (Homo sapiens, UniProt P00846+P05496+P06576+P25705); experiment: Complex V activity dipstick; assay type: biochemical; details: normal fibroblast Complex V (FIG. 30)
T1 construct: tissue Analytical Biological Services, Inc; host or cells: human heart ventricle mitochondria (A10, A12); MRC5, Rho0-MRC5 and GM00028 fibroblasts (A12); normal and Rho0 human fibroblast mitochondria (A19)
Method: Mitochondria (human heart, human fibroblast or bovine heart) were solubilized at 5 mg/ml mitochondrial protein, 1% wt/vol lauryl maltoside, 100 mM NaCl, 25 mM HEPES pH 7.5, and the protease inhibitors pepstatin (0.5 μg/ml), leupeptin (0.5 μg/ml) and PMSF (1 mM). The samples were incubated at 4° C. for 30 minutes and the insoluble material removed by centrifugation at 16,000×g for 20 minutes. Solubilized mitochondria were diluted to the desired concentration in 150 mM NaCl, 50 mM Tris-HCl, pH 7.5 containing 2.5% bovine serum albumin as a blocking and stabilization agent.
After the entire sample wicked up into the nitrocellulose (approximately 15 minutes), the stick was transferred to a second well containing 50 μl of wash buffer (150 mM NaCl, 50 mM Tris-HCl, pH 7.5), which was allowed to wick up the stick (approximately 15 minutes). The absorbent pad was then removed and the entire dipstick incubated in a tube containing 3 ml wash buffer for approximately 15 minutes. The washed dipstick (with the immunocaptured OXPHOS complex of interest) was then transferred to the appropriate enzyme reaction buffer to reveal enzyme activity as described below. […]

[2] = test system: human mitochondrial F1/F0 ATPase (Complex V); experiment: ATPase activity of immunocaptured F1/F0 ATPase, 96-well; assay type: biochemical
Method: Solubilization. Samples were thawed and placed in 25 mM HEPES pH 7.5 (to dissociate F1F0/IF1 interactions) or 10 mM […] (Anatrace) pH 6.5 (to retain F1F0/IF1 interactions), containing 0.4% (w/v) […], and the protease inhibitors leupeptin (0.5 μg/ml), pepstatin (0.5 μg/ml) and PMSF (1 mM). Mitochondria were solubilized at 5 mg/ml and whole cells were solubilized at 2×10^7 cells/ml. Samples were mixed well and then kept on ice for 30 minutes with occasional agitation. Insoluble material was then removed by centrifugation at 16,000×g for 20 minutes at 4° C.
Immunocapture. Assays were run in 96-well plates (Falcon Probind™) using 100 μl/well. […] To control for non-specific adsorption of ATPase, a non-specific mouse monoclonal antibody was used as a null capture mAb. Wells were then loaded with solubilized test samples diluted in TBS with 2.5% BSA, incubated for 2 hours at room temperature and then washed 4 times with TBS.
ATPase activity. ATPase reaction buffer (25 mM HEPES pH 7.5 or 10 mM MOPS pH 6.5, with 25 mM KCl, 5 mM MgCl2, 5 mM KCN and 2 mM ATP) was added at 100 μl/well and incubated for 3 hours at 37° C. The reaction was stopped and free Pi generated by ATP hydrolysis was detected essentially as described by Walker et al. (Meth. Enzymol., 260: 163-190, 1995) by addition of 0.5% ammonium molybendate in 0.7 M H2SO4 (42 μl/well) followed by 10% ascorbic acid (4 μl/well). After incubation for 30 minutes at room temperature to allow color development, absorbance was measured at 690 nm.
IF1 Stripping Conditions. IF1 was dissociated from previously immunocaptured IF1/F1F0 complexes by exposure to IF1 stripping buffer (30 mM Tris-sulfate pH 8, 250 mM KCl, 2 mM EDTA, 75 mM sucrose) for 30 minutes at 37° C. (Van Raaij et al., Biochem. 35: 15618-15625, 1996). The wells were then washed with either a pH 7.5 wash buffer (TBS) or a pH 6.5 wash buffer (10 mM MOPS pH 6.5, 150 mM NaCl and 1 mM MgCl2), and ATPase activity measured at either pH 7.5 or pH 6.5 as described above.
IF1 Addition Conditions. Recombinant human IF1 was obtained by PCR-based amplification of the appropriate gene from a human heart CDNA library (Clontech), cloning into pET15b (Novagen), transformation of E. coli and overexpression and purification of the His-tagged protein on a Ni column by standard protocols (Novagen). Isolated protein was diluted in pH 6.5 wash buffer (as described above) containing 1 mM ATP and incubated with previously immunocaptured F1F0. The wells were then washed with pH 6.5 wash buffer and ATPase activity measured at pH 6.5 as described above.

## CC[C@H]1/C=C/C=C/C[C@@H](C)[C@H](O)[C@@](C)(O)C(=O)[C@@H](C)[C@H](O)[C@@H](C)C(=O)[C@@H](C)[C@H](O)[C@@H](C)/C=C/C(=O)O[C@@H]2[C@H](C)[C@H](CC1)O[C@]1(CC[C@H](C)[C@H](C[C@@H](C)O)O1)[C@H]2C [oligomycin]
[1]
  effect on Complex V activity dipstick signal: reduced signal
[2]; Rho0 fibroblasts, 1.5 μg/ml oligomycin (FIG. 8)
  oligomycin sensitivity of F1/F0 ATPase immunocaptured from Rho0 cell mitochondria: oligomycin insensitive
[2]; cultured fibroblast extract, 1.5 μg/ml oligomycin (FIG. 7B)
  oligomycin sensitivity of immunocaptured enzyme: more than 90%
[2]; human heart mitochondria, 1.5 μg/ml oligomycin (FIG. 5)
  inhibition of ATPase activity of immunocaptured human F1/F0 ATPase: more than 90%
[2]; mAb 12F4AD8AF8 directly adsorbed to the plate
  inhibition of captured F1/F0 ATPase: could not be inhibited
[2]; mAb 12F4AD8AF8 oriented on a layer of goat-anti-mouse IgG
  inhibition of captured F1/F0 ATPase: completely inhibited
